# Measured values from patent US20190330275A1 (priority 2016, published 2019).
# Entries after “also recorded” stand apart in the source; their conditions may differ. Peptide text beside a SMILES is read from it.
# Tests used:
# rat α3β4 nAChR = rat α3β4 nAChR (Rattus norvegicus, UniProt P04757+P12392); assay: cell-based
# rat α6/α3β4 nAChR = rat α6/α3β4 nAChR (Rattus norvegicus, UniProt P04757+P12392+P43143); assay: cell-based
# [1] = α6/α3β4 IC50 (half-blocking dose)
# Chain of rat α6/α3β4 nAChR (P04757 whole entry, looked up): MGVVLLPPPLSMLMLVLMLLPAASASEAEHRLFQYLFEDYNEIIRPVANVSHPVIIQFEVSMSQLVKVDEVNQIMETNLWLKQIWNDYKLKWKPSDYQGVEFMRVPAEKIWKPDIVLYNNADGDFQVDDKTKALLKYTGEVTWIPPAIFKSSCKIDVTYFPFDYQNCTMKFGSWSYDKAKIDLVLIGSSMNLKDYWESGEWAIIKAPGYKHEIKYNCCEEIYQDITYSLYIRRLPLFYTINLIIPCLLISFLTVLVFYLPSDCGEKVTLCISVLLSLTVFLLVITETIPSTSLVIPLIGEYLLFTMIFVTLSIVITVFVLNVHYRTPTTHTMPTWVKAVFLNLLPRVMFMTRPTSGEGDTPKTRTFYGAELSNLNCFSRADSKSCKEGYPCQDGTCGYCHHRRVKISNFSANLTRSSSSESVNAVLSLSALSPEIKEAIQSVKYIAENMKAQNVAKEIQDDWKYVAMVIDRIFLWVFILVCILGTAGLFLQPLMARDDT
# Chain of rat α6/α3β4 nAChR (P12392 whole entry, looked up): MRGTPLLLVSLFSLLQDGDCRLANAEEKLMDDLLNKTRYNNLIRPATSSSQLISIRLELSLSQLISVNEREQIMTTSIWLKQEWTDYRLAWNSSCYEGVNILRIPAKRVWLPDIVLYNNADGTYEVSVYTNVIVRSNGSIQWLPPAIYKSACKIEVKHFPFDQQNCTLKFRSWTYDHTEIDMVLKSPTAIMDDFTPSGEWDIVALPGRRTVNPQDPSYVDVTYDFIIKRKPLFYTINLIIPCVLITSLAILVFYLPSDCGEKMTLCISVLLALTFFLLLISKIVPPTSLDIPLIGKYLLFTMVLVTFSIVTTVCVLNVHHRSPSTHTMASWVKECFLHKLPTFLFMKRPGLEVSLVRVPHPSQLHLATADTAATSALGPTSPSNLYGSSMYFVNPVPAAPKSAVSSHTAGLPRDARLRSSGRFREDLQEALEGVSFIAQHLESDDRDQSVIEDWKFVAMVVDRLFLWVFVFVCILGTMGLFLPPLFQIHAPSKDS
# Chain of rat α6/α3β4 nAChR (P43143 whole entry, looked up): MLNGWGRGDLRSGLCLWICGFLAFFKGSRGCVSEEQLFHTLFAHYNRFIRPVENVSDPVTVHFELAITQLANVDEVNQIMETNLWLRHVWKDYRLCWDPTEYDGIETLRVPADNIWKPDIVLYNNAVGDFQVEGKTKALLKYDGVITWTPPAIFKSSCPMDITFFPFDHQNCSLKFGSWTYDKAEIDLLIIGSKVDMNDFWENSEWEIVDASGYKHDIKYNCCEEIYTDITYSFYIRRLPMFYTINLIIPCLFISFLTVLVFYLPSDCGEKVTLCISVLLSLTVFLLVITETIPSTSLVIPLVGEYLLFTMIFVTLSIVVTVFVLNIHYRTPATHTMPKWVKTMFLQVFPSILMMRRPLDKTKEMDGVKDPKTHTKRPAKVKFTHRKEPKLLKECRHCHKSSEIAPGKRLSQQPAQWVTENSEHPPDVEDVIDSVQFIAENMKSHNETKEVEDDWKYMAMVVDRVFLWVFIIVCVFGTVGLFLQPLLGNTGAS
# Chain of rat α3β4 nAChR (P04757 26-499 limits assumed): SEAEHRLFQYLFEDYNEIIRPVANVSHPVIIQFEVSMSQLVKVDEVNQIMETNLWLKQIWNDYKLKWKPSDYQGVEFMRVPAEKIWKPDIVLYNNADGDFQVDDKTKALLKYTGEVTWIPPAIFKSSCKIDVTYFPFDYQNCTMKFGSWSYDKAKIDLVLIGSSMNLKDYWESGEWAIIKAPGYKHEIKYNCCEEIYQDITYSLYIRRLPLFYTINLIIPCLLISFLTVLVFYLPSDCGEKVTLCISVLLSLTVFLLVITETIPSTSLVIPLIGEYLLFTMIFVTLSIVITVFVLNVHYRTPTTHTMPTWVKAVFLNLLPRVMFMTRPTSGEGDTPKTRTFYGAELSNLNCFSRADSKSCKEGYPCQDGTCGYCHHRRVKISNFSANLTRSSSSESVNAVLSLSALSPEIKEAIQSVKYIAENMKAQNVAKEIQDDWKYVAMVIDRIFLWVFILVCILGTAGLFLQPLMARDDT
# Chain of rat α3β4 nAChR (P12392 21-495 limits assumed): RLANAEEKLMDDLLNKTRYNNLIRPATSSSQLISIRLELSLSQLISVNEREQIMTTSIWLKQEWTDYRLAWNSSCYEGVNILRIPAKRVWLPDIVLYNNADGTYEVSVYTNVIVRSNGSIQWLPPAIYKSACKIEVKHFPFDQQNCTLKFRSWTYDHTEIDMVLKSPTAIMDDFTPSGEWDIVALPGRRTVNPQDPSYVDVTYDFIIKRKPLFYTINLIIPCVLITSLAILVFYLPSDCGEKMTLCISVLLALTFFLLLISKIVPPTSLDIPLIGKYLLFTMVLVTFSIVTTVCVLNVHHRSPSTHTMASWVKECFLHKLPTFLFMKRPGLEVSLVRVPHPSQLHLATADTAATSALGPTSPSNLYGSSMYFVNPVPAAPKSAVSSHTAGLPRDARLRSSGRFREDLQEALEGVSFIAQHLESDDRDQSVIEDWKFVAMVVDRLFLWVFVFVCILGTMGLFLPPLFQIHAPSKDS
structure (smiles),measurement,setting,value
"CC[C@H](C)[C@@H]1NC(=O)[C@@H]2CCCN2C(=O)[C@H](CO)NC(=O)[C@H](CCSC)NC(=O)[C@H](C)NC(=O)[C@H](CCC(=O)O)NC(=O)[C@@H]2CSSC[C@H](NC(=O)CN)C(=O)N[C@@H](CSSC[C@@H](C(N)=O)NC1=O)C(=O)N[C@@H](CO)C(=O)N[C@@H](Cc1c[nH]cn1)C(=O)N1CCC[C@H]1C(=O)N[C@@H](C(C)C)C(=O)N2 [TxID[S9E]] (HELM PEPTIDE1{G.C.C.S.H.P.V.C.E.A.M.S.P.I.C.[am]}$PEPTIDE1,PEPTIDE1,2:R3-8:R3|PEPTIDE1,PEPTIDE1,3:R3-15:R3$$$V2.0)",binding (blocking) activity to α3β4 nAChR compared with wild type TxID,rat α3β4 nAChR,weak
same,binding (blocking) activity to α6/α3β4 nAChR compared with wild type TxID,rat α6/α3β4 nAChR,completely lost; also recorded: completely loses the binding activity
same,blocking effect on the current of rat α6/α3β4 nAChRs,rat α6/α3β4 nAChR,no blocking activity; also recorded: no blocking effect
"CC[C@H](C)[C@@H]1NC(=O)[C@@H]2CCCN2C(=O)[C@H](CO)NC(=O)[C@H](CCSC)NC(=O)[C@H](C)NC(=O)[C@H](Cc2ccccc2)NC(=O)[C@@H]2CSSC[C@H](NC(=O)CN)C(=O)N[C@@H](CSSC[C@@H](C(N)=O)NC1=O)C(=O)N[C@@H](CO)C(=O)N[C@@H](Cc1c[nH]cn1)C(=O)N1CCC[C@H]1C(=O)N[C@@H](C(C)C)C(=O)N2 [TxID[S9F]] (HELM PEPTIDE1{G.C.C.S.H.P.V.C.F.A.M.S.P.I.C.[am]}$PEPTIDE1,PEPTIDE1,2:R3-8:R3|PEPTIDE1,PEPTIDE1,3:R3-15:R3$$$V2.0)",binding (blocking) activity to α3β4 nAChR compared with wild type TxID,rat α3β4 nAChR,not significantly different from the activity of the wild type TxID
same,elution after blocking the α3β4 nAChR current,rat α3β4 nAChR,very slow
same,α3β4 IC50 ratio,rat α3β4 nAChR,3.8
same,IC50 ratio of α6/α3β4 vs. α3β4 (Discrimination),rat α6/α3β4 nAChR,0.5
same,binding (blocking) activity to α6/α3β4 nAChR compared with wild type TxID,rat α6/α3β4 nAChR,not significantly different from the activity of the wild type TxID
same,elution rate after blocking α6/α3β4 nAChR current,rat α6/α3β4 nAChR,significantly slower than those of other polypeptides
same,α6/α3β4 IC50 ratio,rat α6/α3β4 nAChR,0.2
"CC[C@H](C)[C@@H]1NC(=O)[C@@H]2CCCN2C(=O)[C@H](CO)NC(=O)[C@H](CCSC)NC(=O)[C@H](C)NC(=O)[C@H](Cc2ccccc2)NC(=O)[C@@H]2CSSC[C@H](NC(=O)CN)C(=O)N[C@@H](CSSC[C@@H](C(N)=O)NC1=O)C(=O)N[C@@H](CO)C(=O)N[C@@H](Cc1cnc[nH]1)C(=O)N1CCC[C@H]1C(=O)N[C@@H](C(C)C)C(=O)N2 [TxID[S9F]] (HELM PEPTIDE1{G.C.C.S.H.P.V.C.F.A.M.S.P.I.C.[am]}$PEPTIDE1,PEPTIDE1,2:R3-8:R3|PEPTIDE1,PEPTIDE1,3:R3-15:R3$$$V2.0)",IC50,rat α3β4 nAChR; α3β4 IC50,0.0107 µM
same,IC50,rat α3β4 nAChR; α3β4 IC50 (half-blocking dose),0.0139 µM
same,IC50,rat α6/α3β4 nAChR; α6/α3β4 IC50,0.0102 µM
same,IC50,rat α6/α3β4 nAChR; [1],0.00711 µM
"CC[C@H](C)[C@@H]1NC(=O)[C@@H]2CCCN2C(=O)[C@H](CO)NC(=O)[C@H](CCSC)NC(=O)[C@H](C)NC(=O)[C@H](Cc2c[nH]cn2)NC(=O)[C@@H]2CSSC[C@H](NC(=O)CN)C(=O)N[C@@H](CSSC[C@@H](C(N)=O)NC1=O)C(=O)N[C@@H](CO)C(=O)N[C@@H](Cc1c[nH]cn1)C(=O)N1CCC[C@H]1C(=O)N[C@@H](C(C)C)C(=O)N2 [TxID[S9H]] (HELM PEPTIDE1{G.C.C.S.H.P.V.C.H.A.M.S.P.I.C.[am]}$PEPTIDE1,PEPTIDE1,2:R3-8:R3|PEPTIDE1,PEPTIDE1,3:R3-15:R3$$$V2.0)",binding (blocking) activity to α3β4 nAChR compared with wild type TxID,rat α3β4 nAChR,not significantly different from the activity of the wild type TxID
same,blocking of rat α3β4 nAChRs current,rat α3β4 nAChR,strong blocking activities
same,current after 2 min of elution,rat α3β4 nAChR,~0 nA
same,elution after blocking the α3β4 nAChR current,rat α3β4 nAChR,very slow
same,α3β4 IC50 ratio,rat α3β4 nAChR,0.7
same,IC50 ratio of α6/α3β4 vs. α3β4 (Discrimination),rat α6/α3β4 nAChR,5.6
same,binding (blocking) activity to α6/α3β4 nAChR compared with wild type TxID,rat α6/α3β4 nAChR,not significantly different from the activity of the wild type TxID
same,α6/α3β4 IC50 ratio,rat α6/α3β4 nAChR,0.4
"CC[C@H](C)[C@@H]1NC(=O)[C@@H]2CCCN2C(=O)[C@H](CO)NC(=O)[C@H](CCSC)NC(=O)[C@H](C)NC(=O)[C@H](Cc2cnc[nH]2)NC(=O)[C@@H]2CSSC[C@H](NC(=O)CN)C(=O)N[C@@H](CSSC[C@@H](C(N)=O)NC1=O)C(=O)N[C@@H](CO)C(=O)N[C@@H](Cc1cnc[nH]1)C(=O)N1CCC[C@H]1C(=O)N[C@@H](C(C)C)C(=O)N2 [TxID[S9H]] (HELM PEPTIDE1{G.C.C.S.H.P.V.C.H.A.M.S.P.I.C.[am]}$PEPTIDE1,PEPTIDE1,2:R3-8:R3|PEPTIDE1,PEPTIDE1,3:R3-15:R3$$$V2.0)",IC50,rat α3β4 nAChR; α3β4 IC50,0.00196 µM
same,IC50,rat α3β4 nAChR; α3β4 IC50 (half-blocking dose),0.00261 µM
same,IC50,rat α6/α3β4 nAChR; α6/α3β4 IC50,0.0187 µM
same,IC50,rat α6/α3β4 nAChR; [1],0.0147 µM
"CC[C@H](C)[C@@H]1NC(=O)[C@@H]2CCCN2C(=O)[C@H](CO)NC(=O)[C@H](CCSC)NC(=O)[C@H](C)NC(=O)[C@H](CCCCN)NC(=O)[C@@H]2CSSC[C@H](NC(=O)CN)C(=O)N[C@@H](CSSC[C@@H](C(N)=O)NC1=O)C(=O)N[C@@H](CO)C(=O)N[C@@H](Cc1c[nH]cn1)C(=O)N1CCC[C@H]1C(=O)N[C@@H](C(C)C)C(=O)N2 [TxID[S9K]] (HELM PEPTIDE1{G.C.C.S.H.P.V.C.K.A.M.S.P.I.C.[am]}$PEPTIDE1,PEPTIDE1,2:R3-8:R3|PEPTIDE1,PEPTIDE1,3:R3-15:R3$$$V2.0)",blocking of rat α3β4 nAChRs current,rat α3β4 nAChR,completely blocked
same,blocking effect on the current of rat α6/α3β4 nAChRs,rat α6/α3β4 nAChR,no blocking effect
same,blocking of α6/α3β4 nAChR current as part of the control current,rat α6/α3β4 nAChR,less than ¼
same,current blockade,rat α6/α3β4 nAChR,less than 50%
"CC[C@H](C)[C@@H]1NC(=O)[C@@H]2CCCN2C(=O)[C@H](CO)NC(=O)[C@H](CCSC)NC(=O)[C@H](C)NC(=O)[C@H](CC(C)C)NC(=O)[C@@H]2CSSC[C@H](NC(=O)CN)C(=O)N[C@@H](CSSC[C@@H](C(N)=O)NC1=O)C(=O)N[C@@H](CO)C(=O)N[C@@H](Cc1c[nH]cn1)C(=O)N1CCC[C@H]1C(=O)N[C@@H](C(C)C)C(=O)N2 [TxID[S9L]] (HELM PEPTIDE1{G.C.C.S.H.P.V.C.L.A.M.S.P.I.C.[am]}$PEPTIDE1,PEPTIDE1,2:R3-8:R3|PEPTIDE1,PEPTIDE1,3:R3-15:R3$$$V2.0)",binding (blocking) activity to α3β4 nAChR compared with wild type TxID,rat α3β4 nAChR,not significantly different from the activity of the wild type TxID
same,blocking of rat α3β4 nAChRs current,rat α3β4 nAChR,strong blocking activities
same,current after 2 min of elution,rat α3β4 nAChR,~0 nA
same,elution after blocking the α3β4 nAChR current,rat α3β4 nAChR,very slow
same,binding (blocking) activity to α6/α3β4 nAChR compared with wild type TxID,rat α6/α3β4 nAChR,not significantly different from the activity of the wild type TxID
"CC[C@H](C)[C@@H]1NC(=O)[C@@H]2CCCN2C(=O)[C@H](CO)NC(=O)[C@H](CCSC)NC(=O)[C@H](C)NC(=O)[C@H]([C@@H](C)O)NC(=O)[C@@H]2CSSC[C@H](NC(=O)CN)C(=O)N[C@@H](CSSC[C@@H](C(N)=O)NC1=O)C(=O)N[C@@H](CO)C(=O)N[C@@H](Cc1c[nH]cn1)C(=O)N1CCC[C@H]1C(=O)N[C@@H](C(C)C)C(=O)N2 [TxID[S9T]] (HELM PEPTIDE1{G.C.C.S.H.P.V.C.T.A.M.S.P.I.C.[am]}$PEPTIDE1,PEPTIDE1,2:R3-8:R3|PEPTIDE1,PEPTIDE1,3:R3-15:R3$$$V2.0)",binding (blocking) activity to α3β4 nAChR compared with wild type TxID,rat α3β4 nAChR,not significantly different from the activity of the wild type TxID
same,binding (blocking) activity to α6/α3β4 nAChR compared with wild type TxID,rat α6/α3β4 nAChR,not significantly different from the activity of the wild type TxID
